Laboratory results as given in ChEMBL document CHEMBL1201862, “PubChem BioAssay data set” (2004).
Activity calls are given as the source filed them.

Key:
[1] = biological target: Heat shock protein HSP 90-alpha (Homo sapiens, UniProt P07900); assay type: functional, organism-based
[2] = biological target: T1, Polyadenylate-binding protein 1 (Homo sapiens, UniProt P11940); test: PABP1 MLLE–PAM2 interaction inhibitors, dose response, miRNA deadenylation inhibitor project, biochemical, fluorescence polarization, Cy5-PAM2 peptide, secondary (AID 602260); assay type: functional; conditions: read-out: IC50_Mean
[3] = biological target: T1, Polyadenylate-binding protein 1; test: PABP1 MLLE–PAM2 binding inhibitor potency, dose response, biochemical, fluorescence polarization, FITC-PAM2 peptide (AID 602259); assay type: functional; conditions: read-out: IC50_Mean
Streptokinase A = biological target: T2, Streptokinase A (Streptococcus pyogenes serotype M1, UniProt P10520); test: S. pyogenes streptokinase expression inhibitors, potency, dose response, plasminogen activation absorbance, OD405 (AID 1914); assay type: functional, Streptococcus pyogenes M1 GAS;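 note: secreted streptokinase activity via plasminogen activation per viability signal from cell pellet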
T2 sequence (P10520 whole entry): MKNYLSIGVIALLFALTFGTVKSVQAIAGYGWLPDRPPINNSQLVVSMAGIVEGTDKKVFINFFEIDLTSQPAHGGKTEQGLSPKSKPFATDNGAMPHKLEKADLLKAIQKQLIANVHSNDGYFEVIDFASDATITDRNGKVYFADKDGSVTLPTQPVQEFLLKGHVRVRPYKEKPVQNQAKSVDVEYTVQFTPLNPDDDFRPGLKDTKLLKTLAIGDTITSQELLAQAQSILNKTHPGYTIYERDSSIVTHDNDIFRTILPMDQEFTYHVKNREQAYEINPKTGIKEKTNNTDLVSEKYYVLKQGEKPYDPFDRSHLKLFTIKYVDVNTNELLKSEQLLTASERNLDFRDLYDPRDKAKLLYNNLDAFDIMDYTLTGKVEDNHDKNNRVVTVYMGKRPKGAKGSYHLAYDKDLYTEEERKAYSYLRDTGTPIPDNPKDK

[4] = growth suppression of PTEN-null colon cells, dose response, cell-based, HCT116 PTEN knockout (AID 1047); assay type: functional;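 note: HCT116 colon tumor cells with PTEN knocked out; cells exposed to compound for 60 hours before readout; potency for loss of cell viability measured by luminescence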
[5] = growth suppression of beta-catenin-knockout colon cells, dose response, cell-based, HCT116, human colon tumor (AID 1045); assay type: functional;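 note: HCT116 colon tumor cells with beta catenin knocked out; cells exposed to compound for 60 hours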
[6] = biological target: T3, RNA-binding protein pos-1 (Caenorhabditis elegans, UniProt G5EF15); test: inhibitors of POS-1/mex-3 RNA binding, dose response, biochemical, fluorescence polarization (AID 1964);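 note: purified POS-1 fused to maltose binding protein made in E. coli; potency of compounds blocking POS-1 binding to fluorescent RNA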
T3 sequence (G5EF15 whole entry): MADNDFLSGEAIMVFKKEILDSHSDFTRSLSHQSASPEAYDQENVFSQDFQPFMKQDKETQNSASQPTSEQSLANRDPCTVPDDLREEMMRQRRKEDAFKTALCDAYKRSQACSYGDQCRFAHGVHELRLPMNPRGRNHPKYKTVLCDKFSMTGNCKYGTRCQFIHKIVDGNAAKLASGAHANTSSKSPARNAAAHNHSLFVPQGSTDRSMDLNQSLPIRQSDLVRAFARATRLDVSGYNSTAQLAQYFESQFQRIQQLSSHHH

[7] = biological target: T4, Zinc finger protein mex-5 (Caenorhabditis elegans, UniProt Q9XUB2); test: MEX-5/TCR-2 RNA interaction inhibitors, dose response, biochemical, C. elegans, fluorescence polarization (AID 1960)
T4 sequence (Q9XUB2 whole entry): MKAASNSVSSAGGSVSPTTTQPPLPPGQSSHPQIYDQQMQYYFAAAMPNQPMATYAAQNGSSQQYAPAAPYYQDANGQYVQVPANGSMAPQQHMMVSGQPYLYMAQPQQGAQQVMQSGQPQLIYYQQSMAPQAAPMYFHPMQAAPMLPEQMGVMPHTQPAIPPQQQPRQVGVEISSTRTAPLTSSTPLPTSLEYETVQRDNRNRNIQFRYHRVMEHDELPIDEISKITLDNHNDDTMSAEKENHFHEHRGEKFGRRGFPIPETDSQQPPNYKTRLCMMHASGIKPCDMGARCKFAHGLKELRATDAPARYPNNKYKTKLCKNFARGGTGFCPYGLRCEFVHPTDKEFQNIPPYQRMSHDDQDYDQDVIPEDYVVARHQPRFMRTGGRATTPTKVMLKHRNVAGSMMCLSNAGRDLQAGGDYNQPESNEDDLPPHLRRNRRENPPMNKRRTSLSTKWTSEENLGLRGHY

Nonstructural protein 1 = Nonstructural protein 1 (Influenza A virus, UniProt Q194T2); assay type: functional, Influenza A virus (A/California/07/2009(H1N1))
[8] = biological target: T5, Corticotropin-releasing factor receptor 2/Corticotropin-releasing factor-binding protein (Homo sapiens, UniProt P24387+Q13324); test: Dose Response confirmation of uHTS hits for small molecule antagonists of the CRF-binding protein and CRF-R2 receptor complex.; assay type: functional; conditions: read-out: IC50_Mean
T5 sequence (Q13324 whole entry): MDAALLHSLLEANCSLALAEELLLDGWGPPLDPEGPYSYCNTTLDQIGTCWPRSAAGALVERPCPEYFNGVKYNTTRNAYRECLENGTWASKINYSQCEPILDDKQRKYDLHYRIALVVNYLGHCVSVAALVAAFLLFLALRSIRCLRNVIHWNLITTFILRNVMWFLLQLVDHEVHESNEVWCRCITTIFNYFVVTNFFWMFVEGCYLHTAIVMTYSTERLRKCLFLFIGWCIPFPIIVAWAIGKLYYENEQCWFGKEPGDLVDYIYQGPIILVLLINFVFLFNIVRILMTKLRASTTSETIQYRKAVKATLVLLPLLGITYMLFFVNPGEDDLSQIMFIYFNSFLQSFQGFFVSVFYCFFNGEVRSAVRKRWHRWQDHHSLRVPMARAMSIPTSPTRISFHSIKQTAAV
T5 sequence (P24387 whole entry): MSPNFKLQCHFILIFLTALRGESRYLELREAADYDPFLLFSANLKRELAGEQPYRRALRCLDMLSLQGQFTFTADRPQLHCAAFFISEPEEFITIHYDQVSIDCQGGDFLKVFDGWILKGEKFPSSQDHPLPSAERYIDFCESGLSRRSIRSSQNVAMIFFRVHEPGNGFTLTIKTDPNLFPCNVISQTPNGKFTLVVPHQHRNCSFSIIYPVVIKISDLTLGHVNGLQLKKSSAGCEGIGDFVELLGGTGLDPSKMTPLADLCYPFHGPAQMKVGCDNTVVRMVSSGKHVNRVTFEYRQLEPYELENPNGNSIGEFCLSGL

[9] = biological target: T5, Corticotropin-releasing factor receptor 2/Corticotropin-releasing factor-binding protein; test: activators of CRF receptor 2 with binding protein – uHTS hits, confirmation (AID 602473); assay type: functional; conditions: read-out: EC50_Mean
Protein skinhead-1 = biological target: T6, Protein skinhead-1 (Caenorhabditis elegans, UniProt P34707); assay type: functional
T6 sequence (P34707 whole entry): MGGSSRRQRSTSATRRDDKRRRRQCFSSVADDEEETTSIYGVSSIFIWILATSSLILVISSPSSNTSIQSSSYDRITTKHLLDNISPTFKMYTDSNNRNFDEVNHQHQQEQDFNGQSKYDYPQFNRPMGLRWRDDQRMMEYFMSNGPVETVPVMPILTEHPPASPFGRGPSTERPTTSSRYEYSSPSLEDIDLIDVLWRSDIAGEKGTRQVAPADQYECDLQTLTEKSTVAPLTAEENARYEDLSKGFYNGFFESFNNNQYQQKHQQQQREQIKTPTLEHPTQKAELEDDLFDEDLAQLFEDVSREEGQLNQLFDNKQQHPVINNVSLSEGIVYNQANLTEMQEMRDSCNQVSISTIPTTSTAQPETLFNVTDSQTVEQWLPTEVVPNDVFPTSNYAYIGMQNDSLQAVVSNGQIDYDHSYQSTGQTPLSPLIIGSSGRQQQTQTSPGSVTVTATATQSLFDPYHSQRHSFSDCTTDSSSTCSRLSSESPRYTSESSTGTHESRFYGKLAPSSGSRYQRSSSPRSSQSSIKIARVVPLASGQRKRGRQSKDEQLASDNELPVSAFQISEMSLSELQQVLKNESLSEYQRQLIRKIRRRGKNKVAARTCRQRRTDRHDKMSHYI

[10] = HEp-2 cell cytotoxicity, dose response, cytotoxicity control for RSV inhibitor project, HTS (AID 2410); assay type: functional; conditions: human respiratory syncytial virus

T1 sequence (P11940 whole entry): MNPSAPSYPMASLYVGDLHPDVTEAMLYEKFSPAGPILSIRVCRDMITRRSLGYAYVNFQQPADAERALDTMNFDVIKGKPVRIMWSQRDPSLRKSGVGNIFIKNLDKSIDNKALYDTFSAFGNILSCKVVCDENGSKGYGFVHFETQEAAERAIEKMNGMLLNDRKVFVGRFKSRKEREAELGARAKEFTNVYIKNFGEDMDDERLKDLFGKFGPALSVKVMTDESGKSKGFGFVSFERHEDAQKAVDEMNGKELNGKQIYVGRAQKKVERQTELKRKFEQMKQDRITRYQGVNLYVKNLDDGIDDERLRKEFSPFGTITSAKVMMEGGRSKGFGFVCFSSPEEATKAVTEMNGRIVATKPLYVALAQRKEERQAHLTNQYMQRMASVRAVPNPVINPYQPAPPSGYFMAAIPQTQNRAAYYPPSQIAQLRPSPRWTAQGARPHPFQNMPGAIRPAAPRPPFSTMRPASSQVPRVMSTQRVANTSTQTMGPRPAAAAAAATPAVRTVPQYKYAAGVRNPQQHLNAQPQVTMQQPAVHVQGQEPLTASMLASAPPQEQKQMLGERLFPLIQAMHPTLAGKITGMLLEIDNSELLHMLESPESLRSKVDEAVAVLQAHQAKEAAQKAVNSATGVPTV
Sequence of Nonstructural protein 1 (Q194T2 whole entry): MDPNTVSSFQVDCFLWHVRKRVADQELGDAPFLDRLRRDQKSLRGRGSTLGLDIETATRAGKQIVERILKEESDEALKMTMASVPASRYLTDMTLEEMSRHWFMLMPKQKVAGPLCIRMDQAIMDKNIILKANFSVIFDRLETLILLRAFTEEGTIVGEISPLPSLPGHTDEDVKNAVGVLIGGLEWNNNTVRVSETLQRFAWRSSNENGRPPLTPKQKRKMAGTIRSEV

**Q.** For `COc1ccc(N2CCN(c3c(S(=O)(=O)c4ccccc4)cnc4ccc(OC)cc34)CC2)cc1`, which AC50 [1] is on record?
**A.** The AC50 was 2.76 µM (active).

**Q.** With `CCOc1ccc(-n2cc(-c3ccccc3)c3c(=S)[nH]cnc32)cc1` as the compound, how does the IC50 [2] read?
**A.** The IC50 was > 66 µM (inactive).

**Q.** And the IC50 [3]?
**A.** Its IC50 is > 66 µM (inactive).

**Q.** What about the EC50 (Streptokinase A) of the same compound?
**A.** The EC50 was > 150 µM (not active).

**Q.** With `CCc1ccc(-c2nc(CSCC(=O)N3CCN(c4ncccn4)CC3)c(C)o2)cc1` as the compound, how does the EC50 [4] read?
**A.** The EC50 was 53.6 µM (active).

**Q.** What about the EC50 [5] of the same compound?
**A.** Its EC50 is 29.8 µM (active).

**Q.** Which IC50 [2] does the source give for `O=C(NC(=S)Nc1ccc(CN2CCCCC2)cc1)c1ccco1` here?
**A.** The IC50 was > 66 µM (inactive).

**Q.** What about the IC50 [3] of the same compound?
**A.** Its IC50 is > 66 µM (inactive).

**Q.** With `COc1cc([C@H](Cc2ccccc2)NC(C)=O)oc(=O)c1` as the compound, how does the EC50 [6] read?
**A.** The EC50 was 38.7 µM (active).

**Q.** What about the EC50 [7] of the same compound?
**A.** Its EC50 is 27.9 µM (active).

**Q.** Which results are given for `c1csc(C2Nc3cccc4cccc(c34)N2)c1`?
**A.** IC50 [2]: > 66 µM (inactive); IC50 [3]: > 66 µM (inactive)

**Q.** With `CC1CCc2cc(F)ccc2N1C(=O)CSc1n[nH]c2c3ccccc3nc-2n1` (stereo not drawn) as the compound, how does the EC50 [4] read?
**A.** Its EC50 is 19 µM (active).

**Q.** What about the EC50 [5] of the same compound?
**A.** Its EC50 is 22.5 µM (active).

**Q.** With `COc1ccc2cc3cc(C(=O)N4CCN(Cc5ccc6c(c5)OCO6)CC4)oc3nc2c1` as the compound, how does the IC50 (Nonstructural protein 1) read?
**A.** The IC50 was > 100 µM (active).

**Q.** With `COc1cccc(OCCn2cc(C=O)c3ccccc32)c1` as the compound, how does the EC50 [6] read?
**A.** Its EC50 is > 300 µM (not active).

**Q.** And the EC50 [7]?
**A.** The EC50 was > 300 µM (not active).

**Q.** Which results are given for `CCOC(=O)c1sc(-c2ccc(C(F)(F)F)cc2)nc1O`?
**A.** IC50 [8]: > 47.1 µM (inactive); EC50 [9]: 11.9 µM (active); AC50 [1]: 3.14 µM (active)

**Q.** Which IC50 (Protein skinhead-1) does the source give for `CCOc1ccc(-c2nnc(-c3ccccc3)o2)cc1` here?
**A.** Its IC50 is > 100 µM (inactive).

**Q.** With `Fc1ccc(CSc2ncnc3ccccc23)cc1` as the compound, how does the IC50 (Protein skinhead-1) read?
**A.** The IC50 was 31.8 µM (active).

**Q.** With `COc1ccc(S(=O)(=O)NCc2ccc3c(c2)cc(C)n3C)cc1` as the compound, how does the IC50 [2] read?
**A.** The IC50 was > 66 µM (inactive).

**Q.** What about the IC50 [3] of the same compound?
**A.** The IC50 was > 66 µM (inactive).

**Q.** What about the IC50 (Nonstructural protein 1) of the same compound?
**A.** Its IC50 is 66.3 µM (active).

**Q.** For `Clc1cccc(CSc2ccc(-c3ccco3)nn2)c1`, which IC50 (Protein skinhead-1) is on record?
**A.** The IC50 was 99.9 µM (inactive).

**Q.** What about the CC50 [10] of the same compound?
**A.** The CC50 was > 50 µM (active).

**Q.** For `O=C1N=C(N2CCCCC2)S/C1=C/C1=Cc2ccccc2OC1`, which EC50 [6] is on record?
**A.** Its EC50 is > 300 µM (not active).

**Q.** What about the EC50 [7] of the same compound?
**A.** The EC50 was > 300 µM (not active).

**Q.** Which IC50 [2] does the source give for `O=C(NC1CCCCCC1)C(=S)NCCc1ccccc1` here?
**A.** Its IC50 is > 66 µM (inactive).

**Q.** And the IC50 [3]?
**A.** The IC50 was > 66 µM (inactive).

**Q.** Which IC50 (Protein skinhead-1) does the source give for `Cc1cc(NC(=O)CSc2nnc(-c3ccncc3)n2-c2ccc(F)cc2)no1` here?
**A.** The IC50 was > 100 µM (inactive).

**Q.** With `Oc1ccc(-c2c(-c3ccsc3)sc3ccccc23)cc1` as the compound, how does the AC50 [1] read?
**A.** Its AC50 is 3.3 µM (active).
